Experimental findings from ChEMBL document CHEMBL5465560, “Selectivity Literature for EUbOPEN Chemogenomic Library” (2024) are described below.

Assay [1] concerns the target T1, Serine/threonine-protein kinase Sgk3 (Homo sapiens) (UniProt Q96BR1).
T1 sequence (whole entry): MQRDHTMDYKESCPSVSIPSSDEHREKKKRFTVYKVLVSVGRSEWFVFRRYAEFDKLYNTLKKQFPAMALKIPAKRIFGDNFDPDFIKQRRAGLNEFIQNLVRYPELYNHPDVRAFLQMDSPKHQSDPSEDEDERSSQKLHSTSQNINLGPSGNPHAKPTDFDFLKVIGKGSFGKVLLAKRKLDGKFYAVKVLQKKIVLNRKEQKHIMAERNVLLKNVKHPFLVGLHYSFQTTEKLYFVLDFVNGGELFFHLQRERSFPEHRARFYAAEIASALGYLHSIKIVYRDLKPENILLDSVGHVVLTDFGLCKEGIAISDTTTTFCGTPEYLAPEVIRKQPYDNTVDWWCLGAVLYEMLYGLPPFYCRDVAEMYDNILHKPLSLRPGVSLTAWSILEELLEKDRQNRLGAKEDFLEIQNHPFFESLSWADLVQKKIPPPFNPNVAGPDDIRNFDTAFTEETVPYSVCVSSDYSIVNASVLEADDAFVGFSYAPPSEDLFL
Kind of assay: Selectivity interaction (Upstate Kinase Profiler service (Millipore)) EUB0000056c SGK3. To be noted: at 1 µM.

The subject of assay [2] is Epidermal growth factor receptor (Homo sapiens), P00533 [G719S]. The assay can be described thus: (§1) Selectivity interaction (ProQinase) EUB0000171b EGFR.
The subject of assay [3] is Epidermal growth factor receptor (Homo sapiens), P00533 [L858R,T790M]. The description is as §1.
The test system of assay [4] is Epidermal growth factor receptor (Homo sapiens), P00533 [L861Q]. Described as §1.
Sequence of Epidermal growth factor receptor (Homo sapiens), P00533 [L861Q] (P00533 whole entry L861Q): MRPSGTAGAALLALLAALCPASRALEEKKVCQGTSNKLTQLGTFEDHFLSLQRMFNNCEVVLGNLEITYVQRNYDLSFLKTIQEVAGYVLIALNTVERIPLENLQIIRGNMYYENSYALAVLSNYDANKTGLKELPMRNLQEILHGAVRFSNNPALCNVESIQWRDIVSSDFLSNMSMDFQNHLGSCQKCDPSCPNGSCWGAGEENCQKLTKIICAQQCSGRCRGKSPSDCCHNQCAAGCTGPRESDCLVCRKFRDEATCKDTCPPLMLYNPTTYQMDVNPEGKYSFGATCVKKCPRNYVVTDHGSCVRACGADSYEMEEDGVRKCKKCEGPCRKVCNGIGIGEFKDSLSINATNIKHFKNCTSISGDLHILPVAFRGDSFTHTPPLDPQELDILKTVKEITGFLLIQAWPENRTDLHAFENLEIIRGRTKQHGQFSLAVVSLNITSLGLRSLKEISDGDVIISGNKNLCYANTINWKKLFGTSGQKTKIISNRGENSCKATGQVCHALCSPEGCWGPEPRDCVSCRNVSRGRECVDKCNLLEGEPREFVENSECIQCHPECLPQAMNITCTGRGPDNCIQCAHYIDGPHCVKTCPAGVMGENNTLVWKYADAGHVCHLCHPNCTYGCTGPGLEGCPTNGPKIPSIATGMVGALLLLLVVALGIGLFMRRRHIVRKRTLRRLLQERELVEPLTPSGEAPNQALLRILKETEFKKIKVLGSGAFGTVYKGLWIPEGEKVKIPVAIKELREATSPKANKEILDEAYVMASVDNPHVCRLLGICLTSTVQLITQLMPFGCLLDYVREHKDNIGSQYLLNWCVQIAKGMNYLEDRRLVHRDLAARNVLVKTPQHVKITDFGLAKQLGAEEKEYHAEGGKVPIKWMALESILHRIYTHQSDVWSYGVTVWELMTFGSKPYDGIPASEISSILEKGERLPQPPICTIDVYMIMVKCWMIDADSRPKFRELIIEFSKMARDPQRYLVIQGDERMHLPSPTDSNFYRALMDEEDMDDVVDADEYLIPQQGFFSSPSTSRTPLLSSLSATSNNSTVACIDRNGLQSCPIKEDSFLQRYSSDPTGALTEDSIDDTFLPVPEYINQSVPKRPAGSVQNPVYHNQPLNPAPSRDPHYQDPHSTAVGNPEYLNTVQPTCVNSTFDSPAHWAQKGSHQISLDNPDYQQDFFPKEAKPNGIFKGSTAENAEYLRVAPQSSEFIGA
Assay [5] has as its system Epidermal growth factor receptor (Homo sapiens), P00533 [L858R]. The assay is described as §1.
The test system of assay [6] is Epidermal growth factor receptor (Homo sapiens), P00533 [G719C]. The description is as §1.
In assay [7] the test system is Epidermal growth factor receptor (Homo sapiens), P00533 [T790M]. The description is as §1.
The test system of assay [8] is Epidermal growth factor receptor (Homo sapiens), P00533 [UNDEFINED MUTATION]. The description is as §1.
For assay [9], the target named is Epidermal growth factor receptor (Homo sapiens, UniProt P00533). The description is as §1.
Assay [10] has as its target Protein kinase C delta type (Homo sapiens) (UniProt Q05655). Kind of assay: Selectivity interaction (KinomeScan (DiscoverX)) EUB0001079a PRKCD. Conditions: at 1 µM.
In assay [11] the target is T2, Dual specificity mitogen-activated protein kinase kinase 4 (Homo sapiens) (UniProt P45985).
T2 sequence (whole entry): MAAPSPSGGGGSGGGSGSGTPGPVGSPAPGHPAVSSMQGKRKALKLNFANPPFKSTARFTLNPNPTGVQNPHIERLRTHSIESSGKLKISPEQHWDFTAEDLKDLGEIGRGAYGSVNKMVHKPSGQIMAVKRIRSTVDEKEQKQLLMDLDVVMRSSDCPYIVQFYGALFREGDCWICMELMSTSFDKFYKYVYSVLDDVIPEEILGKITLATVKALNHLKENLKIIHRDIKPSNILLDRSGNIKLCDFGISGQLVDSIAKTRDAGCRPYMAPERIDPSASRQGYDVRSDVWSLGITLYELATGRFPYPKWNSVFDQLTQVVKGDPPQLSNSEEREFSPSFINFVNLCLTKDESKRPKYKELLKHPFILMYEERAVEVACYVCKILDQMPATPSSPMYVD
The assay can be described thus: Selectivity interaction (KinomeScan (DiscoverX)) EUB0001079a MAP2K4. Conditions: at 1 µM.

The target of assay [12] is Ribosomal protein S6 kinase alpha-5 (Homo sapiens) (UniProt O75582). The assay can be described thus: Selectivity interaction (Millipore kinase profiler) EUB0000124b RPS6KA5. To be noted: at 10 µM.
Assay [13] addresses Serine/threonine-protein kinase PAK 4 (Homo sapiens, UniProt O96013). Kind of assay: Selectivity interaction (KinomeScan (DiscoverX)) EUB0000695a PAK4. To be noted: at 100 nM.
The target in assay [14] is Interleukin-1 receptor-associated kinase 1 (Homo sapiens) (UniProt P51617). The assay can be described thus: Selectivity interaction (ActivX KiNativ screen (kinase selectivity in THP-1 cell lysates)) EUB0000639a IRAK1. The assay is classed as subcellular. To be noted: lysate.
Sequence of Interleukin-1 receptor-associated kinase 1 (Homo sapiens) (P51617 whole entry, looked up): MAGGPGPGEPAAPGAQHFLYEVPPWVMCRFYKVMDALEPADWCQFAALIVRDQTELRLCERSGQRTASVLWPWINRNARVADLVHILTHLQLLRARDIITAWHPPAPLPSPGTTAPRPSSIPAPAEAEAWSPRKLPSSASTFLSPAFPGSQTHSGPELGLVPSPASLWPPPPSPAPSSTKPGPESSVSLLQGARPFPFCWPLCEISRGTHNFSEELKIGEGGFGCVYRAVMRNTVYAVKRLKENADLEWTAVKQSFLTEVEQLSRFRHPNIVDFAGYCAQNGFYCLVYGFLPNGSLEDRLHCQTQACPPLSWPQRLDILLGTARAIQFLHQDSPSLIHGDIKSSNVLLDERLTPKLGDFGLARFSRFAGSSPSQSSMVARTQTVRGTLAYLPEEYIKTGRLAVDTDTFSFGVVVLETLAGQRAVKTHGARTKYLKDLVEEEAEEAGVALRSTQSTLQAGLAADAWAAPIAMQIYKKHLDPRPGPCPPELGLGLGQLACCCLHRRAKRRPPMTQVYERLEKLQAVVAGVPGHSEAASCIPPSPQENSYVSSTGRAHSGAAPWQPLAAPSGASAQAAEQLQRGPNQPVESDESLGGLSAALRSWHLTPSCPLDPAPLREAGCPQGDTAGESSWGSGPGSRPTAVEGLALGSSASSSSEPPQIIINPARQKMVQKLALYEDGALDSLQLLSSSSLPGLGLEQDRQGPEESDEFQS
Assay [15] has as its target T3, Scaffold protein ILK (Homo sapiens) (UniProt Q13418).
T3 sequence (whole entry): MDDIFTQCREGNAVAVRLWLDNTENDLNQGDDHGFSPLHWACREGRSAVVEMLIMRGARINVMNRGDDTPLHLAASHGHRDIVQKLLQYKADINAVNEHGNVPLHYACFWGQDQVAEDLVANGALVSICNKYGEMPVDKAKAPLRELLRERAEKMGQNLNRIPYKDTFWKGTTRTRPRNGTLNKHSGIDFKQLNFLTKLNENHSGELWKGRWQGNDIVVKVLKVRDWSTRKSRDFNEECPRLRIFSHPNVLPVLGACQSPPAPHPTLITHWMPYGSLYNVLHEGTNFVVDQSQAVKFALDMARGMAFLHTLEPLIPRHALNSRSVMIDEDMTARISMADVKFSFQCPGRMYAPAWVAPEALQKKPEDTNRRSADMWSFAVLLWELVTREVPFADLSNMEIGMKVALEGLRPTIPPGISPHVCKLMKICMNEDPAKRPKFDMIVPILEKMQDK
The assay can be described thus: Selectivity interaction (ActivX KiNativ screen (kinase selectivity in THP-1 cell lysates)) EUB0000639a ILK. The assay is classed as subcellular. To be noted: lysate, at 1 µM.

The target in assay [16] is Epithelial discoidin domain-containing receptor 1 (Homo sapiens) (UniProt Q08345). The assay can be described thus: Selectivity interaction (KinomeScan (DiscoverX)) EUB0000229b DDR1. Conditions: at 10 µM.
In assay [17] the target is Tyrosine-protein kinase BTK (Homo sapiens, UniProt Q06187). The assay can be described thus: Selectivity interaction (ActivX KiNativ screen (ex vivo kinase selectivity in human PBMCs)) EUB0001619a BTK. To be noted: PBMC, at 1 µM. The assay is classed as cell-based.
Assay [18] addresses BMP-2-inducible protein kinase (Homo sapiens) (UniProt Q9NSY1). The assay can be described thus: Selectivity interaction (Kinase panel (DSF assay)) EUB0001489b BMP2K.

Sequence of Epidermal growth factor receptor (Homo sapiens), P00533 [L858R] (P00533 whole entry L858R): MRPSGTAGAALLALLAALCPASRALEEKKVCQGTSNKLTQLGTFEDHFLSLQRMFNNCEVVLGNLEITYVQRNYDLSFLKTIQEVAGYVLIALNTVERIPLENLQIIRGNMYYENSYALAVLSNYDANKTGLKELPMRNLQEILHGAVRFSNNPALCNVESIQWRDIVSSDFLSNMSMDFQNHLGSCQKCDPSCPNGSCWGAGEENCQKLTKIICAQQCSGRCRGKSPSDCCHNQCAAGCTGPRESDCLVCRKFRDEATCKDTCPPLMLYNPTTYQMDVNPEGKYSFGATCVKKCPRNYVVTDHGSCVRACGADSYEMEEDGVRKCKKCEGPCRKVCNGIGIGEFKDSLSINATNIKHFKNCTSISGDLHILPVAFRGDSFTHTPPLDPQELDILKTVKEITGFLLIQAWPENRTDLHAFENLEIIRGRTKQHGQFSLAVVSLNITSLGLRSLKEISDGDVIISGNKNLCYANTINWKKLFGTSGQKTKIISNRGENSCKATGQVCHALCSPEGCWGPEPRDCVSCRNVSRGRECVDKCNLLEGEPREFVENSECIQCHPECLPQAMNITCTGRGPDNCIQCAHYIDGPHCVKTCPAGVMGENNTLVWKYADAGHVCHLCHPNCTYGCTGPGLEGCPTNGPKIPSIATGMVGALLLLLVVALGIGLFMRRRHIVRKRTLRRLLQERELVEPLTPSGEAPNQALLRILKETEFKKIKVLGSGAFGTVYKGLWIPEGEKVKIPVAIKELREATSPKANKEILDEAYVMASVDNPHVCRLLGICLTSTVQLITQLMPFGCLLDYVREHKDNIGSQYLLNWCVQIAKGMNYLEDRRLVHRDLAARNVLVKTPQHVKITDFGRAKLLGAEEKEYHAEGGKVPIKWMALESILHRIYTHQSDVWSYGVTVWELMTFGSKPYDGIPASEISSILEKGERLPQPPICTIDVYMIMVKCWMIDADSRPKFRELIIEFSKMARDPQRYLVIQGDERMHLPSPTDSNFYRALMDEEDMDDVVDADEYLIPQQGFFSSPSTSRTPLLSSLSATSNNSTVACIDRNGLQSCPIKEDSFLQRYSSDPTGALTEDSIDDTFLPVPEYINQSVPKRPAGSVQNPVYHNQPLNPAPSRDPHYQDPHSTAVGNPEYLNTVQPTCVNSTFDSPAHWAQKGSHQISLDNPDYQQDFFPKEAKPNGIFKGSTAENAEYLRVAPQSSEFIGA
Sequence of Epidermal growth factor receptor (Homo sapiens), P00533 [L858R,T790M] (P00533 whole entry T790M/L858R, looked up): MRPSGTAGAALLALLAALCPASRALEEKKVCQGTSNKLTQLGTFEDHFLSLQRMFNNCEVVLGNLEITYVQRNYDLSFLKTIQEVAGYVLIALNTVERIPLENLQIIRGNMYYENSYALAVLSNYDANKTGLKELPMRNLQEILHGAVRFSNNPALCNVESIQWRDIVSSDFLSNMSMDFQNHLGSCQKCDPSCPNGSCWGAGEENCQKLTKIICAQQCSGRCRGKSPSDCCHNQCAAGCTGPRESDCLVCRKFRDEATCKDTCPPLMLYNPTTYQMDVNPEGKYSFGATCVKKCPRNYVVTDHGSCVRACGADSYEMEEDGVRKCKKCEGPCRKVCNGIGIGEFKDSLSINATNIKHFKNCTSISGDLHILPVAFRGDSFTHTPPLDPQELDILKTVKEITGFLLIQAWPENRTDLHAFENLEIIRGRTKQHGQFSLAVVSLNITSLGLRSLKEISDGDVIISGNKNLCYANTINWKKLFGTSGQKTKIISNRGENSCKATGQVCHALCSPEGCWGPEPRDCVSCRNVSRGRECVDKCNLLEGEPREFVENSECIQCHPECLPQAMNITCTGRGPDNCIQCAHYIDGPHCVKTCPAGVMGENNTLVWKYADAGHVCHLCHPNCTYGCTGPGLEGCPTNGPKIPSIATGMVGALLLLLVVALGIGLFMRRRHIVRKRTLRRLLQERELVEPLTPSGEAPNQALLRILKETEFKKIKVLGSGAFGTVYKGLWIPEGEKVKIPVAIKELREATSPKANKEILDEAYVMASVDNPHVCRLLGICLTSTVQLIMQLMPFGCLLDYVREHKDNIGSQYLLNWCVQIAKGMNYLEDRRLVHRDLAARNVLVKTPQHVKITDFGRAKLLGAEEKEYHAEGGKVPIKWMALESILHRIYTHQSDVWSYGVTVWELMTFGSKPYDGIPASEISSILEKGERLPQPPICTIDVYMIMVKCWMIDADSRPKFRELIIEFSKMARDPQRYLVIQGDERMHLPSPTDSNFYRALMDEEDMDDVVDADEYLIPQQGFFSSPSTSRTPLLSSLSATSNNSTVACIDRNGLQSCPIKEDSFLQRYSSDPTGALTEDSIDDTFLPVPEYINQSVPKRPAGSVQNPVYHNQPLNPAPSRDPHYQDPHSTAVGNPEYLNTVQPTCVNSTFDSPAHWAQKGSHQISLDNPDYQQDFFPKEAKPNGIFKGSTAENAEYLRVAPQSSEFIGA
Sequence of Serine/threonine-protein kinase PAK 4 (O96013 whole entry, looked up): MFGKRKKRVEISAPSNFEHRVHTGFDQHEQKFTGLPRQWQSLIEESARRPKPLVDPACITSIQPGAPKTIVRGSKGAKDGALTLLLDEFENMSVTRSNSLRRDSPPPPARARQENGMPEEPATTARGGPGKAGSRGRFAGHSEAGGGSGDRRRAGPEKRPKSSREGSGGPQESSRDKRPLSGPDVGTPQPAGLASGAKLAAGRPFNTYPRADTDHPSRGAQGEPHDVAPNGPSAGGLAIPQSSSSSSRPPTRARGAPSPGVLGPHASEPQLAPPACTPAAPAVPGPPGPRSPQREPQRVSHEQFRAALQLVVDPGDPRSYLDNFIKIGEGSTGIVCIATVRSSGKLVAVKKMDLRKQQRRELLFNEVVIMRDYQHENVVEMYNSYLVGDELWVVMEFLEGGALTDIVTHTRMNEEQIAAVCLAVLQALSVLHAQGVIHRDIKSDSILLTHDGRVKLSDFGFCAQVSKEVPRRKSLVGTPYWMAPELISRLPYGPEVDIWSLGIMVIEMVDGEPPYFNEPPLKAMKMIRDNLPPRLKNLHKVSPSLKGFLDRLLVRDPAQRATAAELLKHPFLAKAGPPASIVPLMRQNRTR

`Cc1ccc(-c2ccc3c(ccc4sc5c(c43)NC[C@@H](C)NC5=O)n2)cn1`: the % of inhibition in [1] is -1%.
Regarding `C=CC(=O)Nc1cccc(C(=O)Nc2ccc(Nc3cc(-c4[nH]c(SC)nc4C)ccn3)cc2)c1`, the % of control in assay [2] (at 1 µM) worked out at 88%; in [2] (at 5 µM) it was 97%; in assay [3] (at 1 µM), 96%; in [3] (at 5 µM), 96%; in [4] (at 1 µM), 104%; in [4] (at 5 µM), 91%. Also, the % of control in [5] (at 1 µM) came out at 95%; in assay [5] (at 5 µM), 83%; in [6] (at 1 µM), 96%; in assay [6] (at 5 µM), 75%; in assay [7] (at 1 µM) it was 91%; in [7] (at 5 µM) it was 84%. The % of control in assay [8] (at 1 µM) was determined as 115%; in [8] (at 5 µM) it was 88%; in [9] (at 1 µM) it was 108%; in assay [9] (at 5 µM), 101%.
For `Nc1cnc(N2CCc3cc(S(=O)(=O)Nc4c(F)cc(Cl)cc4F)cc(N4CCCC4=O)c32)nc1` [TP-020n], the % of control was determined as 86% in assay [10] and 100% in [11].
For the compound `CC(=O)Nc1cccc(-n2c(=O)n(C3CC3)c(=O)c3c(Nc4ccc(I)cc4F)n(C)c(=O)c(C)c32)c1`, the % of control in assay [12] was determined as 111%.
`Cc1cc(F)c(C(=O)Nc2cccc(-c3nncn3C(C)C)n2)cc1-n1cnc(C2CC2)c1`: the % of control in assay [13] worked out at 99%.
With `CC[C@@H]1[C@H](F)C(=O)N[C@@H]1COc1nccc2cc(C(N)=O)c(OC)cc12` [ZIMLOVISERTIB], the % of inhibition in assay [14] (at 0.01 µM) is 2.3%; in [14] (at 0.04 µM) it was 8.5%; in assay [14] (at 0.2 µM), 2.2%; in [14] (at 1 µM), 19.8%; in assay [14] (at 5 µM), 60.7%; in assay [15] it was -17.5%.
In [16], `COc1cc(N(C)c2ccnc3ccc(C(F)(F)F)cc23)cc(OC)c1OC` yielded a % binding of 78%.
Regarding `N#Cc1cccc(-c2c[nH]c3ncnc(N4CCOCC4)c23)c1`, in assay [17], the % of inhibition turned out to be 10%.
Turning to `CN1CCN(C(=O)c2ccc3cc2OCCOCCNc2ccn4ncc-3c4n2)CC1`, in assay [18], the dTM stood at 6.8 K.
